Key:
[1] = tested on: Bst polymerase; conditions: "runaway" reaction with Bst polymerase, 100 uM dNTPs, 37° C., before TCEP treatment
Description: For reactions with Bst large fragment (NEB), 40 uL of hybridized beads were resuspended in 22.5 uL of reaction mixture (40 mM Tris-HCl pH8.8, 20 mM ammonium sulfate, 20 mM KCl, 0.2% Triton X-100, 2 mM MgSO4, 40 U Bst). Reactions were pre-warmed to 37° C. for one minute before adding 2.5 uL of 1 mM dNTPs (NEB) (for a final concentration of 100 uM). After five minutes at 37° C., reactions were quenched with 40 μL RB. Beads were washed with 40 μL RB and SP_T was eluted with 0.1N NaOH for 10 minutes at room temperature then neutralized with 1.5 uL Tris-HCl pH8.0.
Denaturing PAGE: An equal volume of 2×TBE-Urea Sample Buffer (Novex, Thermo Fisher) was added to samples before heat-denaturation for five minutes at 85° C. 10 μL sample and a 10 bp ladder (TrackIt, Invitrogen) on a 15% TBE-Urea PAGE gel (Novex, Thermo Fisher) in 1×TBE for two hours at 160V. Gels were imaged for fluorescence before staining and again after staining with SYBR Gold (Thermo) on an AlphaImager 3400.

[2] = tested on: Bst polymerase; conditions: incubation with 100 mM TCEP pH9.0, 65° C., 30 minutes
Description: Primer extension: For reactions with CENT1 enzyme, the enzyme was boiled for 5 minutes at 95° C. before use. 40 uL of hybridized beads were resuspended in 22.5 uL of reaction mixture (40 mM Tris-HCl pH8.8, 20 mM ammonium sulfate, 20 mM KCl, 0.2% Triton X-100, 2 mM MgSO4, 1.5 ug CENT1). Reactions were pre-warmed to 45° C. for one minute before adding 2.5 uL of 20 uM nucleotide (for a final concentration of 2 uM). After one minute of incorporation, reactions were quenched with 40 μL RB. Beads were washed with 40 μL RB and either resuspended in a new reaction mixture for further incorporation events or SP_T was eluted with 0.1 N NaOH for 10 minutes at room temperature then neutralized with 1.5 uL Tris-HCl pH8.0. For reactions with Bst large fragment (NEB), 40 uL of hybridized beads were resuspended in 22.5 uL of reaction mixture (40 mM Tris-HCl pH8.8, 20 mM ammonium sulfate, 20 mM KCl, 0.2% Triton X-100, 2 mM MgSO4, 40 U Bst). Reactions were pre-warmed to 37° C. for one minute before adding 2.5 uL of 1 mM dNTPs (NEB) (for a final concentration of 100 uM). After five minutes at 37° C., reactions were quenched with 40 μL RB. Beads were washed with 40 μL RB and SP_T was eluted with 0.1N NaOH for 10 minutes at room temperature then neutralized with 1.5 uL Tris-HCl pH8.0.
Cleavage of Reversible Terminators: After incorporation of reversible terminators, beads were resuspended in 100 mM TCEP pH9.0 (Gold Bio) and incubated at 65° C. for 30 minutes before quenching with 100 μL RB. Beads were washed with 40 μL RB and either resuspended in a new reaction mixture for further incorporation events or SP_T was eluted with 0.1N NaOH for 10 minutes at room temperature then neutralized with 1.5 uL Tris-HCl pH8.0.

[3] = tested on: DNA polymerase CENT1; assay: Primer extension assay with DNA polymerase CENT1; type: biochemical; conditions: 2 uM nucleotide, 45° C., one minute, denaturing PAGE
Description: (§1) Oligo Preparation: Oligos were purchased from IDT and stored at 500 uM in nuclease-free water: A biotinylated target sequence (Biot_Primer1_Capt, 5′-/5Biosg/[…] TTTCAG-3′ (SEQ ID NO: 1)) and a sequencing primer (SP_T, 5′-[…]-3′ (SEQ ID NO: 2)). 8 nmol of the biotinylated template sequence was conjugated to streptavidin-coated magnetic beads (T1 Dynabeads, Invitrogen) for one hour at room temperature in a solution containing 1M NaCl, 10 mM Tris-HCl pH7.5, 1 mM EDTA. Beads were washed three times with wash buffer at 60° C. (0.64×SSC, 0.016% SDS) to remove unbound primer and stored in 800 μL reaction binding buffer, RB, (1M NaCl, 25 mM Tris-HCl pH7.5, 0.01% TWEEN20) at 4° C. To hybridize the sequencing primer to the template, 100 uL of conjugated beads were incubated with a saturating amount of SP_T (2.5 nmol) in 200 μL RB at 70° C. for five minutes, 55° C. for 15 minutes, then 25° C. for 5 minutes. Hybridized beads were stored in 360 uL RB at room temperature.

[4] = tested on: enhanced DNA polymerase (EDP); assay: Primer extension assay with enhanced DNA polymerase (EDP); type: biochemical; conditions: denaturing PAGE, FIG. 12
Description: as §1

| Molecule | Blocking of further extension after terminator incorporation [1] | De-blocking (removal of 3′-azidomethyl cap, extension resumes) [2] | Primer extension (incorporation of the terminator into the growing DNA chain) catalyzed by CENT1 [3] | Primer extension (incorporation of the terminator) catalyzed by EDP [4] |
| --- | --- | --- | --- | --- |
| 3′-O-azidomethyl-5-(Alexa530-dithiolinker-carbamate)-dUTP [compound 34] | Blocking of further extension after terminator incorporation is observed | De-blocking was accomplished | extension was catalyzed |  |
| CC(C)(C)OC(=O)NCCSSCCOC(=O)NCC#Cc1cn([C@H]2CC(OCN=[N+]=[N-])[C@@H](COP(=O)(O)OP(=O)(O)OP(=O)(O)O)O2)c(=O)[nH]c1=O (stereo partly drawn) [compound 31] |  | De-blocking was accomplished | extension was catalyzed | extension was catalyzed |
| [N-]=[N+]=NCOC1C[C@H](n2cc(C#CCNC(=O)OCCSSCCNC(=O)c3ccc(-c4c5ccc(=O)cc-5oc5cc(O)ccc45)c(C(=O)O)c3)c(=O)[nH]c2=O)O[C@@H]1COP(=O)(O)OP(=O)(O)OP(=O)(O)O (stereo partly drawn) [compound 33, 3′-O-azidomethyl-5-(Fluorescein-dithiolinker-cabamate)-2′-deoxyuridinetriphosphate] | Blocking of further extension after terminator incorporation is observed | De-blocking was accomplished | extension was catalyzed |  |
